Experimental findings from publication PMC6882492, “Synthesis and biological evaluation of novel thienopyrimidine derivatives as diacylglycerol acyltransferase 1 (DGAT-1) inhibitors” (Journal of Enzyme Inhibition and Medicinal Chemistry, 2019) are described below.

Some results are limits rather than exact numbers.

The target in data set [1] is T1, human recombinant DGAT1 enzyme expressed in insect cells (SF9 cells) (Homo sapiens, UniProt O75907).
T1 construct: made in house; host or cells: SF9 insect cells (microsomal membrane fraction)
T1 sequence (O75907 1-488): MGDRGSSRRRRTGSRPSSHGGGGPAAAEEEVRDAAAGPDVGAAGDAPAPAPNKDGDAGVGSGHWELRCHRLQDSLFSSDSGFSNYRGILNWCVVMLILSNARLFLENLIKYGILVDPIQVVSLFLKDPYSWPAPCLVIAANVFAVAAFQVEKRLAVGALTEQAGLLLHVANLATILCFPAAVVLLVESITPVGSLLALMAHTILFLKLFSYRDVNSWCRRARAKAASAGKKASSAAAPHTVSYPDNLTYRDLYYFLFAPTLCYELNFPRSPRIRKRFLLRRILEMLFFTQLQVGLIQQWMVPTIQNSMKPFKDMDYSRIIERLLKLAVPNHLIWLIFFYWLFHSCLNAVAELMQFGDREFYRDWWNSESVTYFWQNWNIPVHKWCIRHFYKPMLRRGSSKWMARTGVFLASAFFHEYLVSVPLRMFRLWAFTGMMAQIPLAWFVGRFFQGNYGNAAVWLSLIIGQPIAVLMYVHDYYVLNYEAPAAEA
Description: DGAT-1 inhibition assay (IC50), SF9 microsomes. Format: biochemical. The settings on record: SF9 insect cells expressing human DGAT-1. On the procedure: The activity of DGAT-1 inhibitors in vitro was evaluated by using a human recombinant DGAT1 enzyme expressed in insect cells (SF9 cells). SF9 cells were homogenised by washing them with DPBS (Dulbecco’s phosphate-buffered saline) and then suspending cell pellets with a tris buffer (250 mM sucrose; 10 mM Tris-HCl [pH 7.4]; proteinase inhibitor). The resulting mixture was centrifugally separated at 10,000 × g for 30 min to remove the cell debris remaining in the lower layer thereof, and was centrifugally separated at 100,000 × g for 60 min to obtain a microsomal membrane. Further, membrane fractions were resuspended by the tris buffer, and then stored at -80 °C.
The activity of DGAT1 was measured according to the reported method. Specifically, 0.0001 – 10 μΜ (final concentration, FC) of the test compounds were cultured at room temperature (25 °C) for 15 min with a […] of SF9 microsomal protein solution and 100 mM of MgCl2 solution, and were then further cultured at room temperature (25 °C) for 30 min after the addition of 100 μΜ (FC in 12.5% EtOH) of 1,2-dioleyl-sn-glycerol and 30 μΜ (final conc.) of [14]C-oleyl coenzyme A. The reaction was completed by the addition of 300 μL of a mixed solution of 2-propanol/heptane (7:1), and radioactive triglyceride was separated from an organic solvent layer by using 200 μL of heptane and 200 μL of a 0.1 M carbonate buffer (pH 9.5). The amount of triglyceride was measured by liquid scintillography (Perkin Elmer, USA) after mixing with an organic solvent and an equivalent amount of scintillation solvent (MicroScint-O, Perkin Elmer, USA). The effects of inhibiting DGAT1 were calculated as percent in comparison with a control material.
The activities of synthesised compounds were evaluated using SF9 insect cells expressing human DGAT-1[22]. A potent DGAT-1 inhibitor, LCQ-908 (2 or pradigastat) was used as a positive control. […] The calculated lowest energy conformation model of 14c provided that the distance between the terminal carboxylic acid and NH of urea was over 16 Å, which may result in reduced activity. […]

In another data set the target is T2, hDGAT1 (Homo sapiens, UniProt O75907).
T2 sequence (O75907 1-488): T1 sequence (O75907 1-488)
Description: Enzymatic assay hDGAT1. It is filed as biochemical. The source says:
(§1) ACATs have sequence homology to DGAT-1 and play essential roles in cholesterol homeostasis. 17b was not explored in the enzymatic assays due to its poor pharmacokinetic profile.

The target in another data set is T3, hDGAT2 (Homo sapiens, UniProt Q96PD7).
T3 sequence (Q96PD7 1-388): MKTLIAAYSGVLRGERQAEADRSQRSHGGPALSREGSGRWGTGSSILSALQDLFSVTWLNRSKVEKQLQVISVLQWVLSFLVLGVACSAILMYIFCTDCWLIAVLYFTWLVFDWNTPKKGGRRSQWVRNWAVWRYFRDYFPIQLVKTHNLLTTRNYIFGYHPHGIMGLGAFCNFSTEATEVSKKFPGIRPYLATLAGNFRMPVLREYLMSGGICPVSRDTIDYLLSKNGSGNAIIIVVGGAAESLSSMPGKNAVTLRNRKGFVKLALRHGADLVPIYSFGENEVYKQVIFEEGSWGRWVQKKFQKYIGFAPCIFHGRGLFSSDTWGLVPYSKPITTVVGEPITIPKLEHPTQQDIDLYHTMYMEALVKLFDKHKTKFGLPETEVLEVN
Kind of data set: Enzymatic assay hDGAT2. It is filed as biochemical.
From the text: as §1

A short description of data set [2]: In vitro microsomal stability, human. The settings on record: human liver microsomes, 5 μM, 60 min. Format: in vitro ADME.
The next data set concerns the target CYP3A4 (Homo sapiens, UniProt P08684). Kind of data set: CYP inhibition assay CYP3A4. The settings on record: fluorescence detection method; read-out: CYPs enzyme inhibition, IC50, CYP3A4. Format: in vitro ADME.
A further data set deals with T4, CYP1A2 (Homo sapiens, UniProt P05177).
T4 sequence (P05177 1-516): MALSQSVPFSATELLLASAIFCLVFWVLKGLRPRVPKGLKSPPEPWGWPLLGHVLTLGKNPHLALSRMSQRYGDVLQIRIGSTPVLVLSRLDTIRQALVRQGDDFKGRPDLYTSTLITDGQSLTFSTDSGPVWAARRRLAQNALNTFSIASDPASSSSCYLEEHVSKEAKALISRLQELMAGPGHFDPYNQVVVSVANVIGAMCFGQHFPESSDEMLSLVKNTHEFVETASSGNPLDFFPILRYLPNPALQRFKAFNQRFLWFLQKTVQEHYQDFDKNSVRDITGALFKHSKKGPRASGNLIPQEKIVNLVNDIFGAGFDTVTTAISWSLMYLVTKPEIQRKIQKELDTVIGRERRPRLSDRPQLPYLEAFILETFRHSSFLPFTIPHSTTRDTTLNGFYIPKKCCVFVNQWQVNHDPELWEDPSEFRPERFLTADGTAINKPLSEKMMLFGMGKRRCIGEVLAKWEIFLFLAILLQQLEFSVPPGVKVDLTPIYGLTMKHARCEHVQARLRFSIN
Kind of data set: CYP inhibition assay CYP1A2. It is filed as in vitro ADME. The settings on record: fluorescence detection method; read-out: CYPs enzyme inhibition, IC50, CYP1A2.

Chain of CYP3A4 (P08684 whole entry): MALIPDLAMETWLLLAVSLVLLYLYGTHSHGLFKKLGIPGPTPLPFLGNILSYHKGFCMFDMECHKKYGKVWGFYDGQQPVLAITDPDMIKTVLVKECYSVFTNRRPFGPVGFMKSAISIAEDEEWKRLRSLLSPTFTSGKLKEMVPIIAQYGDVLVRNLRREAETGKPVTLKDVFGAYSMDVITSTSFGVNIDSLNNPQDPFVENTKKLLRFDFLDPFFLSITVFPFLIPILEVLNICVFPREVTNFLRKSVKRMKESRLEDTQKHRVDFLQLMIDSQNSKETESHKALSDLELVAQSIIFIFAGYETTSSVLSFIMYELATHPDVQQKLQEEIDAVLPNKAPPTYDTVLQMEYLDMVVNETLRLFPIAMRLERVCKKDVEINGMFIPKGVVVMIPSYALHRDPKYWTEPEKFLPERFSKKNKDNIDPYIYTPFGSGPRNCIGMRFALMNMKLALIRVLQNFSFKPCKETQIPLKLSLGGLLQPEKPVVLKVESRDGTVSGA

Turning to `O=C([O-])C[C@H]1CC[C@@H](c2csc3c(-c4ccc(NC(=O)Nc5cccc(Cl)c5)cc4)ncnc32)CC1.[Na+]` [Compound 17a, Sodium cis-2–(4–(4-(4-(3–(3-chlorophenyl)ureido)phenyl)thieno[3,2-d]pyrimidin-7-yl)cyclohexyl)acetate], the IC50 (in general, the midpoint of a concentration-inhibition curve) is 74 nM in data set [1]; 61 nM at hDGAT1; over 10 µM against hDGAT2; 16.2 µM on CYP3A4; 10.6 µM on CYP1A2. Moreover, the “Microsomal stability, remaining percent” value in data set [2] stood at 94%.
